These results are taken from ChEMBL document CHEMBL3045735, “Antibacterial and molecular docking studies of entagenic acid, a bioactive principle from seed kernel of Entada pursaetha DC” (2012).

The structures appear in SMILES notation. ≈ marks a conversion by molar mass, not a printed value.

Holding throughout (format): functional
In test [1] the test system is Bacillus cereus. In words: Antibacterial activity against Bacillus cereus NCIM-2155 after 24 hr by broth dilution method. The settings on record: NCIM-2155, 24 h. (In general: In broth dilution the organism is exposed to a series of concentrations in liquid medium.)
The subject of test [2] is Proteus vulgaris. Description: Antibacterial activity against Proteus vulgaris NCIM-2027 after 24 hr by broth dilution method. The settings on record: NCIM-2027, 24 h.
For test [3], the system named is Pseudomonas aeruginosa. Description: Antibacterial activity against Pseudomonas aeruginosa NCIM-2036 after 24 hr by broth dilution method. The settings on record: NCIM-2036, 24 h.
Test [4] deals with Staphylococcus aureus. Description: Antibacterial activity against Staphylococcus aureus NCIM-2079 after 24 hr by broth dilution method. The settings on record: NCIM-2079, 24 h.
In test [5] the test system is Klebsiella aerogenes. In words: Antibacterial activity against Enterobacter aerogenes NCIM 2036 after 24 hr by broth dilution method. The settings on record: NCIM-2036, 24 h.
Test [6] has as its system Alcaligenes faecalis. In words: Antibacterial activity against Alcaligenes faecalis NCIM-2262 after 24 hr by broth dilution method. The settings on record: NCIM-2262, 24 h.
In test [7] the test system is Escherichia coli. In words: Antibacterial activity against Escherichia coli NCIM-2065 after 24 hr by broth dilution method. The settings on record: NCIM-2065, 24 h.
In test [8] the test system is Bacillus subtilis. In words: Antibacterial activity against Bacillus subtilis NCIM-2063 after 24 hr by broth dilution method. The settings on record: NCIM-2063, 24 h.
The subject of test [9] is Bacillus cereus. In words: Antibacterial activity against Bacillus cereus NCIM-2155 after 24 hr by agar diffusion assay. Background: A growth-free zone around the sample is the usual read-out of agar diffusion tests.
Test [10] relates to Proteus vulgaris. In words: Antibacterial activity against Proteus vulgaris NCIM-2027 after 24 hr by agar diffusion assay.
The test system of test [11] is Pseudomonas aeruginosa. In words: Antibacterial activity against Pseudomonas aeruginosa NCIM-2036 after 24 hr by agar diffusion assay.
Test [12] relates to Staphylococcus aureus. In words: Antibacterial activity against Staphylococcus aureus NCIM-2079 after 24 hr by agar diffusion assay.
For test [13], the system named is Alcaligenes faecalis. In words: Antibacterial activity against Alcaligenes faecalis NCIM-2262 after 24 hr by agar diffusion assay.
Test [14] concerns Klebsiella aerogenes. Description: Antibacterial activity against Enterobacter aerogenes NCIM 2036 after 24 hr by agar diffusion assay.
Test [15] concerns Escherichia coli. Description: Antibacterial activity against Escherichia coli NCIM-2065 after 24 hr by agar diffusion assay.
Test [16] deals with Bacillus subtilis. In words: Antibacterial activity against Bacillus subtilis NCIM-2063 after 24 hr by agar diffusion assay.

For `CC1(C)CC[C@]2(C(=O)O)[C@H](O)[C@H](O)[C@]3(C)C(=CC[C@@H]4[C@@]5(C)CC[C@H](O)C(C)(C)[C@@H]5CC[C@]43C)[C@@H]2C1` [ENTAGENIC ACID], the MIC (as a rule, the lowest concentration that inhibits growth of the organism) in [1] came out at 100 mg/L (≈ 205 µM); in [2], 250 mg/L (≈ 512 µM); in test [3] it was 150 mg/L (≈ 307 µM); in [4], 100 mg/L (≈ 205 µM); in test [5], 300 mg/L (≈ 614 µM); in test [6], 150 mg/L (≈ 307 µM). The MIC in test [7] was found to be 250 mg/L (≈ 512 µM); in [8], 100 mg/L (≈ 205 µM). Besides, the “diameter of the inhibition zone (DIZ)” value amounted to 22 mm in [9]; 13.5 mm in [10]; 15 mm in test [11]; 17.5 mm in test [12]; 15 mm in [13]; 6.5 mm in test [14]. Moreover, the “diameter of the inhibition zone (DIZ)” value in test [15] came out at 13 mm; in [16] it was 18 mm.

In the case of `CN[C@@H]1[C@H](O[C@H]2[C@H](O[C@H]3[C@H](O)[C@@H](O)[C@H](N=C(N)N)[C@@H](O)[C@@H]3N=C(N)N)O[C@@H](C)[C@]2(O)C=O)O[C@@H](CO)[C@H](O)[C@H]1O` [STREPTOMYCIN], the “diameter of the inhibition zone (DIZ)” value in test [9] was 20.53 mm; in test [10] it was 24.36 mm; in [11], 21.15 mm; in test [12], 19.41 mm; in test [13] it was 22.37 mm; in [14], 19.38 mm. Moreover, the “diameter of the inhibition zone (DIZ)” value amounted to 18.42 mm in test [15] and 22.33 mm in [16].
